Earlier results, collected in patent publication US8992954B2, “Compositions comprising a derivative of 5-aminolevulinic acid” (Photocure ASA, priority 2010, dated 2015).

Test system: skin
Conditions: Eucerin cream base with 5%, 10% and 20% by weight of ALA; occlusion 4 hours; visible light

Skin reactions after the illumination: erythema and edema appeared
Compound: NCC(=O)CCC(=O)O [Composition 5-ALA, 5-amino-4-oxo-pentanoic acid]
Complaints during illumination: All volunteers complained about burning and itching | Pigmentary response: pigmentary response was observed
